# Data taken from article PMC7999182, “Interaction of Remdesivir with Clinically Relevant Hepatic Drug Uptake Transporters” (Pharmaceutics, 2021).
# Key:
# [1] = molecular target: T1, OCT1 (Homo sapiens, UniProt O15245); assay: Inhibition of OCT1-mediated metformin uptake; format: cell-based
# T1 construct: expressed in transfected cells
# T1 sequence (O15245 1-554): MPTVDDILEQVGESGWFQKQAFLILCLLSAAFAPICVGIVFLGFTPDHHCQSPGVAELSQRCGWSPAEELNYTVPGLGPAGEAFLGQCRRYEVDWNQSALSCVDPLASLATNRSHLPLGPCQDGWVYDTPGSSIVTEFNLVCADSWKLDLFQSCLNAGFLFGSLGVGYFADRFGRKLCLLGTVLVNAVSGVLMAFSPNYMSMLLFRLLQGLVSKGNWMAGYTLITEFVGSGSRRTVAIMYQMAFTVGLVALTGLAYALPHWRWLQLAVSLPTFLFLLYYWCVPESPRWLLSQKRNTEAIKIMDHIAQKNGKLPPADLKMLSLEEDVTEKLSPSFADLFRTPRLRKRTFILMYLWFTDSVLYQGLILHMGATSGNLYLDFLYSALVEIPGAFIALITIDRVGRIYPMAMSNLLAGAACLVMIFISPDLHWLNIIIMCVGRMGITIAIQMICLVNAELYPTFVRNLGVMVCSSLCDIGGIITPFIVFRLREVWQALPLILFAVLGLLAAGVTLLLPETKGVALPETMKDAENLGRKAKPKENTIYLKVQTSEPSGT
# Excerpt: (§1) Generation, cultivation and characterization of human embryonic kidney (HEK) cells stably expressing OATP1B1 refseq (=OATP1B1*1a), OATP1B1*1b, OATP1B1*5 and OATP1B1*15 [18], OATP1B3 [19], OATP2B1 [13] and OCT1 [20] have been described previously. OATP1B1 cells were cultivated in minimal essential medium (Life Technologies, Paisley, UK) and OATP1B3, OATP2B1 and OCT1 cells were cultivated in Dulbecco’s modified Eagle medium (Sigma, Darmstadt, Germany). Cultivation media were supplemented with 10% fetal calf serum, 100 U/mL penicillin and 100 µg/mL streptomycin. Cells were grown at 37 °C and 5% CO2. Functionality of the cells was confirmed by measuring uptake of prototypic substrates (see Section 2.3 and supplementary material).
# Prototypic substrate uptake was performed as described previously. For this, uptake solutions contained the respective substrate with tracer amounts of radiolabeled substrate. In case of inhibition studies, uptake solutions additionally contained different concentrations of remdesivir. […] Cells were then lysed with 0.2% sodium dodecyl sulfate and intracellular radioactivity was measured by liquid scintillation counting (Tricarb2800, PerkinElmer Life Sciences GmbH, Rodgau, Germany or Hidex 300SL TDCR liquid scintillation counter, Turku, Finland). […]
# [2] = molecular target: T2, OATP1B1*15 (Homo sapiens, UniProt Q9Y6L6, N130D/V174A); assay: Remdesivir uptake into HEK cells stably expressing OATP1B1*15 vs vector control; format: in vitro ADME; details: 10 min
# T2 construct: expressed in transfected cells
# T2 sequence (Q9Y6L6 1-691 N130D/V174A): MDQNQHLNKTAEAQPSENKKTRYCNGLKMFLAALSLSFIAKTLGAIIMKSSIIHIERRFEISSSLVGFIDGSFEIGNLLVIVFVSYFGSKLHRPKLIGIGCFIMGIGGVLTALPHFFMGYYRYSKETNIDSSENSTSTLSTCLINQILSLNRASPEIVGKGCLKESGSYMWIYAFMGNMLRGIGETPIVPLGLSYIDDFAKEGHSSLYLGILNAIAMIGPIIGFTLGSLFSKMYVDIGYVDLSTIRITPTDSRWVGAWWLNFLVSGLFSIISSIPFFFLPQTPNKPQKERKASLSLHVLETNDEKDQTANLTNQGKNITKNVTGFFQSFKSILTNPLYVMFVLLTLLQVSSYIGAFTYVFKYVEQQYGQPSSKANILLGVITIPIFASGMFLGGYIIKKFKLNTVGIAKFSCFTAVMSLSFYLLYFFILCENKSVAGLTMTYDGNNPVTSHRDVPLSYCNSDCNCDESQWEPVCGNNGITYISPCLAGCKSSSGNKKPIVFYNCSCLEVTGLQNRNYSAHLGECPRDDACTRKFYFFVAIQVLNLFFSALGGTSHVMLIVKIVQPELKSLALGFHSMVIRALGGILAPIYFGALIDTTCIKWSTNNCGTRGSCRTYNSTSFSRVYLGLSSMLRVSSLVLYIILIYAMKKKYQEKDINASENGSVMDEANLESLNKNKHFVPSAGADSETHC
# Excerpt: as §1
# Uptake assays were conducted at 37 °C according to previously described methods. For this, cells were seeded in 24-well plates (320,000 cells/well) and cultured for 2 days. Cells were then incubated for a further 24 h in culture medium with 5 mM butyrate (OATP1B3, OATP2B1, OCT1) or 10 mM butyrate (OATP1B1) to increase protein levels of recombinant transporters. Before the uptake experiments, cells were washed with the respective pre-warmed (37 °C) uptake buffer. The compositions of the uptake buffers were as follows: for OATP1B1, OATP1B3, OATP2B1: 142 mM NaCl, 12.5 mM hydroxyethylpiperazine ethanesulfonic acid, 5 mM KCl, 1 mM KH2PO4, 1.5 mM CaCl2, 1.2 mM MgSO4, 5 mM glucose, pH 7.3; for OCT1: 145 mM NaCl, 5 mM hydroxyethylpiperazine ethanesulfonic acid, 3 mM KCl, 1 mM CaCl2, 0.5 mM MgCl2, 5 mM glucose, pH 7.4. Uptake was initiated by replacing this solution with uptake buffer containing different concentrations of remdesivir as indicated. […]
# Remdesivir was determined by UHPLC-MS-MS analysis on an Agilent 1290 infinity UHPLC system coupled to an Agilent 6495B triple quadrupole mass spectrometer (Agilent, Waldbronn, Germany) similar to a recently published method. […]
smiles,measurement,setting,value
CCC(CC)COC(=O)[C@H](C)N[P@](=O)(OC[C@H]1O[C@@](C#N)(c2ccc3c(N)ncnn23)[C@H](O)[C@@H]1O)Oc1ccccc1 [Remdesivir],Effect on prototypic substrate uptake,"[1]; 5 µM metformin, 5 min uptake, different remdesivir concentrations",significant concentration-dependent inhibitory effect
same,Transporter inhibition at 10 µM,"[1]; 10 µM remdesivir, metformin as substrate",inhibition
same,Uptake vs vector-transfected control cells,[2]; 0.5 µM remdesivir,significantly lower uptake
same,Accumulation vs vector-transfected control cells,[2]; 5 µM remdesivir,moderately higher
same,Accumulation vs vector-transfected control cells,[2]; 10 and 50 µM remdesivir,moderately higher
